Assay results from patent US20180214442A1, “METHODS FOR ATTENUATING OR PREVENTING MU(μ)-OPIOID RECEPTOR MEDIATED TOLERANCE AND OPIOID-INDUCED […]” (The Board of Trustees of the Leland Stanford Junior …, priority 2017, published 2018).

Key:
[1] = system: light-evoked excitatory postsynaptic currents (EPSCs) in lamina I-II outer neurons; assay: Spinal cord slice whole-cell recording of light-evoked EPSCs from ChR2-expressing TRPV1 nociceptors; assay type: cell-based, mouse
From the text: FIG. 4. Opioid-induced spinal long-term potentiation (LTP) is initiated by presynaptic MOR in nociceptors. (a,b) MOR cKO mice crossed with a mouse line expressing Channel-rhodopsin2 (ChR2-eYFP) in a Cre-dependent manner produces expression of ChR2-eYFP in Trpv1^Cre+DRG nociceptor cell bodies and central terminals in the spinal cord dorsal horn. Scale bars=50 m, throughout. (c,d) Blue light-evoked (473 nm, 1.0 mW/cm^2, 0.2 ms, 0.05 Hz) excitatory postsynaptic currents (EPSCs) recorded in laminae I and II outer spinal neurons in slices from MOR cKO and littermate controls. Numbered inset traces correspond to individual EPSCs before, during, and after wash-out of bath applied DAMGO (500 nM; 5 min duration). Scale bar=100 pA, 10 ms. (c) DAMGO-induced depression of EPSC amplitude and rebound LTP after washout (Control+LTP; n=8/15 neurons) in control slices. […] Error bars are mean±SEM.
Adult mice (6-8 weeks old) were anesthetized with isoflurane, decapitated, and the vertebral column was rapidly removed and placed in oxygenated ice-cold dissection solution (in mM: 95 NaCl, 2.5 KCl, 1.25 NaH2PO4, 26 NaHCO3, 50 sucrose, 25 glucose, 6 MgCl2, 1.5 CaCl2, and 1 kynurenic acid, pH 7.4, 320 mOsm). The lumbar spinal cord was isolated, embedded in a 3% agarose block, and transverse slices (400 Lm thick) were made using a vibrating microtome (Leica V T 1200S). Slices were incubated in oxygenated recovery solution (in mM: 125 NaCl, 2.5 KCl, 1.25 NaH2PO4, 26 NaHCO3, 25 glucose, 6 MgCl2, and 1.5 CaCl2, pH 7.4, 320 mOsm) at 35° C. for 1 hour before recording. Patch-clamp recording in whole-cell configuration was performed at 32° C. on lamina I or lamina II outer zone neurons visualized with an Olympus microscope (BX51WI age-MTI). Slices were perfused at ˜2 ml/min with recording solution (in mM: 125 NaCl, 2.5 KCl, 1.25 NaH2PO4, 26 NaHCO3, 25 glucose, 1 MgCl2, 2 CaCl2, pH 7.4, 320 mOsm). Recordings were performed in voltage-clamp mode at a holding potential of −70 mV. Thick-walled borosilicate pipettes, having a resistance of 3-6 MOhm, were filled with internal solution (in mM: 120 potassium gluconate, 20 KCl, 2 MgCl2, 5 MgATP, 0.5 NaGTP, 20 HEPES, 0.5 EGTA, PH 7.25 with KOH, ˜300 mOsm). All data were acquired using a Multiclamp 700B amplifier and pClamp10 software (Molecular Devices). Sampling rate was 10 kHz and data were filtered at 2 kHz. Analysis of eEPSC peak amplitudes was done with Clampfit software (pClamp10, Molecular Devices). Graphs and statistical analysis were generated with Igor Pro (Wave Metrics).
To isolate the TRPV1 nociceptor mediated EPSCs, we crossed the TRPV1-Cre mice with Ai32 mice (Rosa-CAG-LSL-ChR2(H134R)-EYFP-WPRE) (Bardoni et al., 2014) to limit the channelrhodopsin 2 expression specifically to TRPV1 primary afferents. […]

wild-type C57Bl/6J mice = assay: Morphine and MNB combination in wild-type mice: nociceptive reflexes, affective-motivational behaviors, tolerance and OIH; assay type: in vivo, mouse
Procedure: (a) Temporal raster plot of nociception-induced sensory-reflexive and affective-motivational behaviors in an inescapable noxious environment (enclosed 52.5° C. hotplate). […] MNB doses 0.0-1.0 mg/kg, n=10; MNB 10 mg/kg, n=7 for reflexive tests and n=5 for affective-motivational tests. Best-fit lines were generated following non-linear regression analysis based on the % MPE for each mouse. One-way ANOVA+Bonferroni (left panels of b,d,f-k). ★ P<0.05. Error bars are mean±SEM. Overlaid points are individual animal scores. PID=post-injury day.
(b) Visual depiction of reflexive paw flinching behavior. (c) Latencies to the first paw flinch. (d) Number of paw flinches (see FIG. 17). (e) Visual depiction of hindpaw guarding behavior. (f) Latency to the first onset of hindpaw guarding. (g) Total duration of time spent engaged in hindpaw guarding. (h) Visual depiction of hindpaw attending. (i) Latency to the first onset of hindpaw attending. (j) Total duration of time spent engaging in hindpaw attending. (k) Visual depiction of escape jumping behavior. (1) Latency to the first jump. […] (m) Number of escape jumps. […] Error bars are±SEM.
Repeated Measures 2-way ANOVA+Bonferonni. ★ P<0.05. Error bars are mean±SEM.
(§1) To evaluate mechanical reflexive hypersensitivity (Weibel et al., 2013), we used a logarithmically increasing set of 8 von Frey filaments (Stoelting), ranging in gram force from 0.007 to 6.0 g. These were applied perpendicular to the plantar hindpaw with sufficient force to cause a slight bending of the filament. A positive response was characterized as a rapid withdrawal of the paw away from the stimulus filament within 4 s. Using the up-down statistical method (Solway et al., 2011), the 50% withdrawal mechanical threshold scores were calculated for each mouse and then averaged across the experimental groups.
(§2) To evaluate affective-motivational responses to an acute, focal thermal stimulus (Madisen et al., 2012), we applied either a single, unilateral 50 μl drop of 55° C. water or acetone (evaporative cooling) to the left hindpaw, and the duration of attending behavior was collected for up to 30 seconds after the stimulation. Only one stimulation per thermal drop was applied on a given testing session, in order to prevent behavioral sensitization that can result from multiple noxious stimulations and then averaging those responses.
To evaluate affective-motivational responses to a sustained, inescapable noxious thermal stimulus, mice were placed on a 52.5° C. hot plate for 45 seconds. A high-speed camera (on the side, level with the hot plate floor) was used to capture the movement, speed, velocity, and detailed reflexive and affective-motivational behaviors of the mice, as described above.
As opposed to the standard hot-plate test, all behaviors such as reflexive paw flinching (rapid flicking of the limb), paw attending (directed licking of the limb), paw guarding (intentional lift protection of the limb), and escape jumping for the duration of the trial were scored. This allowed the analysis of the high-speed videos, blinded to plate temperature or treatment, for the total time spent engaging in affective-motivational behaviors and the number of nociceptive reflexives, as opposed to the traditional metric of merely determining the latency to the first reflexive response.

laxation responses = details: subcutaneous MNB 5, 12.5 or 20 mg; clinical; cited from earlier work
[2] = system: MOR cKO mice and littermate controls; assay: 10 day chronic morphine schedule: antinociceptive tolerance and OIH in MOR cKO mice and littermate controls; assay type: in vivo, mouse; details: 10 mg/kg subcutaneous once daily for 10 days
Procedure: Nociceptive behavior (pre-morphine BL timepoints only): von Frey: F1, 30=9.863, P=0.004; tail immersion: F1, 30=0.7311; hotplate: F1, 30=[…]. Antinociception (post-morphine+30 min timepoints only): von Frey: F1, 30=4.812, P=0.0367; tail immersion: F1, 30=19.74, P<0.0001; hotplate: F1, 30=17.23, P=0.0004. […] Control, n=19; MOR cKO, n=13. BL=baseline. […] Repeated Measures Two-way ANOVA+Bonferroni (a,d,g and left panels of b,c,e,f,h,i). ★ P<0.05. Error bars are mean±SEM. Overlaid points are individual animal scores. BL=baseline.
(§3) The tail-immersion test was used to evaluate thermal reflexive hypersensitivity (Woolf, 1984) with the temperature of the water bath being set to 48-52.5° C. The mouse was gently restrained and 2 cm of the tip of the tail was submerged in the water bath, and the latency (seconds) to reflexively withdraw the tail from the water was recorded as a positive nociceptive reflex response. A maximal cut-off of 45-60 s was set to prevent tissue damage.
The hotplate test was used to evaluate thermal-induced affective-motivational responses (Woolf, 1984) with the plate temperature being set to 50-52.5° C.). Mice were place on the plate and the latency (seconds) to the first appearance of an attending response (lick and/or bite at one or both hindpaws) was recorded as a positive affective-motivational response. A maximal cut-off of 45 s was set to prevent tissue damage.
Next the development of morphine antinociceptive tolerance and OIH in MOR cKO mice was evaluated. […] We measured thermal and mechanical nociceptive thresholds, and affective-motivational responses to noxious thermal stimuli prior to, and 30 min after, each daily injection, to evaluate OIH and tolerance, respectively (FIG. 3, panels a, d, g).

[3] = system: MOR cKO mice and littermate controls; assay: Acute morphine antinociception in MOR cKO mice and littermate controls (von Frey, tail immersion, hotplate); assay type: in vivo, mouse
From the text: as §1

[4] = system: wild-type control and global MOR KO mice; assay: Chronic morphine analgesic tolerance and OIH in wild-type control and global MOR KO mice (thermal tail immersion); assay type: in vivo, mouse
Procedure: These treatments were given for 6 days (Days 2-7). […] (b) Untransformed, raw sensory threshold scores for same data presented in FIG. 1, panels a and b. n=6 for all groups. ★ P<0.05. Error bars are±SEM.
as §3

[5] = system: mice with chronic constriction injury (CCI) of the sciatic nerve; details: CCI + morphine alone 10 mg/kg
From the text: (§4) Error bars are mean±SEM. Overlaid points are individual animal scores. PID=post-injury day.
as §1, §2

[6] = system: mice with tibia fracture and bone pinning; details: morphine alone 10 mg/kg
From the text: as §4, §4, §1, §2

[7] = subcutaneous morphine 10 mg/kg, acute

C[C@@H](NC(=O)[C@@H](N)Cc1ccc(O)cc1)C(=O)NCC(=O)N(C)[C@@H](Cc1ccccc1)C(=O)NCCO [DAMGO, [D-Ala^2, N-MePhe^4, Gly-ol^5]-enkephalin]
EPSC amplitude during DAMGO ([1]; MOR cKO slices, 9 out of 9 neurons, 500 nM): 98±8.12 % of control
EPSC amplitude after DAMGO-washout ([1]; MOR cKO slices, 9 out of 9 neurons, after washout of 500 nM): 96.2±11.9%
EPSC amplitude after washout (LTP) ([1]; control slices, 8 out of 15 neurons, thirty minutes after washout of 500 nM): 142.2±6.1 % of control
depression of light-evoked EPSCs ([1]; control slices, all 15 recorded neurons, 500 nM bath application, at 5 min of application): 52±10.5 % inhibition

C[N@+]1(CC2CC2)CC[C@]23c4c5ccc(O)c4O[C@H]2C(=O)CC[C@@]3(O)[C@H]1C5 [MNB, methylnaltrexone bromide]
dose-response of MNB effect on morphine tolerance, latency to nociceptive reflexes (paw flinch) (wild-type C57Bl/6J mice; 45 s 52.5° C. hot plate, morphine 10 mg/kg + MNB 0.1-10.0 mg/kg): bell-shaped dose-response curve
effect of MNB on morphine antinociceptive effects (wild-type C57Bl/6J mice; MNB 0.1-10.0 mg/kg combined with morphine): did not alter morphine antinociceptive effects
onset of morphine antinociceptive tolerance and OIH, 10-day treatment (wild-type C57Bl/6J mice; MNB 1 or 10 mg/kg + morphine for 10 days, von Frey and 52.5° C. hotplate): prevents the onset of morphine antinociceptive tolerance and OIH
onset of tolerance and OIH (wild-type C57Bl/6J mice; morphine 10 mg/kg + MNB 0.1-10.0 mg/kg once daily for 7 days): dose-dependently prevents the onset of morphine antinociceptive tolerance and OIH
laxation responses, percentage of responders (laxation responses): higher percentage of responders after 5 or 12.5 mg subcutaneous MNB compared to a 20 mg dose

CN1CC[C@]23c4c5ccc(O)c4O[C@H]2[C@@H](O)C=C[C@H]3[C@H]1C5.O=S(=O)(O)O [morphine, Morphine sulfate]
OIH for thermal and mechanical stimuli ([2]; MOR cKO mice vs controls): significantly less OIH than controls
morphine antinociception over chronic treatment (tolerance) ([2]; MOR cKO mice): retained near full antinociceptive efficacy
morphine antinociception over chronic treatment (tolerance) ([2]; littermate controls): progressively diminished
antinociceptive tolerance and OIH, reflexive and affective-motivational measures (wild-type C57Bl/6J mice; morphine alone 10 mg/kg once daily for 7 days, Day 7 compared to Day 1): robust antinociceptive tolerance and OIH
affective-motivational behaviors (wild-type C57Bl/6J mice; [7]): effective at alleviating affective-motivational behaviors
nociceptive reflexes (wild-type C57Bl/6J mice; [7]): significantly reduce nociceptive reflexes
reflexive or affective-motivational antinociception ([3]; MOR cKO mice, acute intrathecal 1 μg): did not produce significant reflexive or affective-motivational antinociception
reflexive and affective-motivational antinociception ([3]; MOR cKO mice, subcutaneous 10 mg/kg): maximal reflexive and affective-motivational antinociception
antinociception ([3]; control mice, acute intrathecal 1 μg): robust antinociception
OIH ([4]; global MOR KO mice, twice daily escalating 10 to 40 mg/kg schedule): no OIH
analgesic tolerance and OIH ([4]; wild-type mice, chronic morphine, fixed once daily 10 mg/kg or twice daily escalating 10 to 40 mg/kg, subcutaneous): significant tolerance and OIH
OIH [5]: No indications of OIH
reduction of nociceptive or affective-motivational orthotrauma pain after chronic treatment ([6]; after 7 days of chronic treatment): no longer effective
antinociception, acute ([6]; first administration): acutely produced antinociception
